# Values joined by “and” are separate entries in the source; they are usually repeats but may differ in a detail not shown here. Equal values may be shown once. ± gives the expanded uncertainty stated by the source.
# Assays:
# [1] = Crystal, Calculated from knudsen effusion weight loss
# [2] = molar enthalpy of vaporization or sublimation; details: Crystal, Clausius-Clapeyron equation and measured Psat
smiles,measurement,setting,value
"Nc1cccc2c(N)cccc12 [1,5-diaminonaphthalene]",vapor or sublimation pressure,[1]; 367.07 K,0.000122 ± 6e-06 kPa and 0.000123 ± 6e-06 kPa and 0.000125 ± 6e-06 kPa
same,vapor or sublimation pressure,[1]; 369.1 K,0.00015 ± 8e-06 kPa and 0.000153 ± 8e-06 kPa and 0.000149 ± 7e-06 kPa
same,vapor or sublimation pressure,[1]; 371.16 K,0.000193 ± 1e-05 kPa and 0.00019 ± 1e-05 kPa and 0.000182 ± 9e-06 kPa
same,vapor or sublimation pressure,[1]; 373.08 K,0.000243 ± 1.2e-05 kPa and 0.000229 ± 1.1e-05 kPa and 0.000246 ± 1.2e-05 kPa
same,vapor or sublimation pressure,[1]; 375.1 K,0.000311 ± 1.6e-05 kPa and 0.000289 ± 1.4e-05 kPa and 0.000286 ± 1.4e-05 kPa
same,vapor or sublimation pressure,[1]; 377.16 K,0.000365 ± 1.8e-05 kPa and 0.000344 ± 1.7e-05 kPa and 0.000338 ± 1.7e-05 kPa
same,vapor or sublimation pressure,[1]; 379.09 K,0.000432 ± 2.2e-05 kPa and 0.000427 ± 2.1e-05 kPa and 0.000417 ± 2.1e-05 kPa
same,vapor or sublimation pressure,[1]; 381.1 K,0.000535 ± 2.7e-05 kPa and 0.000522 ± 2.6e-05 kPa and 0.000502 ± 2.5e-05 kPa
same,vapor or sublimation pressure,[1]; 383.16 K,0.00064 ± 3.2e-05 kPa and 0.000622 ± 3.1e-05 kPa and 0.000603 ± 3e-05 kPa
same,vapor or sublimation pressure,[1]; 385.08 K,0.000758 ± 3.8e-05 kPa and 0.000781 ± 3.9e-05 kPa and 0.000757 ± 3.8e-05 kPa
same,vapor or sublimation pressure,[1]; 387.09 K,0.000967 ± 4.8e-05 kPa and 0.00093 ± 4.7e-05 kPa and 0.000909 ± 4.6e-05 kPa
same,vapor or sublimation pressure,[1]; 389.16 K,0.001163 ± 0.00012 kPa and 0.001096 ± 0.00011 kPa and 0.001063 ± 0.00011 kPa
same,molar enthalpy,[2]; 378.11 K,28.3 ± 0.717 kcal/mol
"Nc1cccc2cccc(N)c12 [1,8-diaminonaphthalene]",vapor or sublimation pressure,[1]; 314.1 K,4.71e-05 ± 2.4e-06 kPa and 4.91e-05 ± 2.5e-06 kPa and 4.81e-05 ± 2.4e-06 kPa
same,vapor or sublimation pressure,[1]; 316.18 K,6.84e-05 ± 3.4e-06 kPa and 6.65e-05 ± 3.3e-06 kPa and 6.32e-05 ± 3.2e-06 kPa
same,vapor or sublimation pressure,[1]; 318.18 K,8.3e-05 ± 4.2e-06 kPa and 7.89e-05 ± 4e-06 kPa and 8.02e-05 ± 4e-06 kPa
same,vapor or sublimation pressure,[1]; 320.09 K,0.000102 ± 5e-06 kPa and 9.96e-05 ± 5e-06 kPa
same,vapor or sublimation pressure,[1]; 322.13 K,0.000135 ± 7e-06 kPa and 0.000127 ± 6e-06 kPa and 0.000126 ± 6e-06 kPa
same,vapor or sublimation pressure,[1]; 324.19 K,0.000165 ± 8e-06 kPa and 0.000155 ± 8e-06 kPa and 0.000159 ± 8e-06 kPa
same,vapor or sublimation pressure,[1]; 326.12 K,0.000197 ± 1e-05 kPa and 0.000204 ± 1e-05 kPa and 0.000181 ± 9e-06 kPa
same,vapor or sublimation pressure,[1]; 328.19 K,0.000261 ± 1.3e-05 kPa and 0.000251 ± 1.3e-05 kPa and 0.000244 ± 1.2e-05 kPa
same,vapor or sublimation pressure,[1]; 330.17 K,0.000315 ± 1.6e-05 kPa and 0.000298 ± 1.5e-05 kPa and 0.000296 ± 1.5e-05 kPa
same,vapor or sublimation pressure,[1]; 332.07 K,0.000351 ± 1.8e-05 kPa and 0.000379 ± 1.9e-05 kPa and 0.000364 ± 1.8e-05 kPa
same,vapor or sublimation pressure,[1]; 334.12 K,0.000485 ± 2.4e-05 kPa and 0.000472 ± 2.4e-05 kPa and 0.000466 ± 2.3e-05 kPa
same,vapor or sublimation pressure,[1]; 336.19 K,0.000583 ± 2.9e-05 kPa and 0.00056 ± 2.8e-05 kPa and 0.000585 ± 2.9e-05 kPa
same,vapor or sublimation pressure,[1]; 338.08 K,0.000707 ± 3.5e-05 kPa and 0.000739 ± 3.7e-05 kPa and 0.000734 ± 3.7e-05 kPa
same,molar enthalpy,[2]; 326.09 K,23.3 ± 0.335 kcal/mol
